According to patent US20240306670A1, “BERBERINE ALKALOIDS IN THE PREVENTION AND/OR TREATMENT OF INTESTINAL DISEASE” (priority 2017, published 2024):
Read-outs that look alike come from different tables or passages of the source.

Tests used:
[1] = in vivo
[2] = in vivo; cited from earlier work
[3] = test system: clinical isolate of C. difficile; experiment: In vitro MIC and MBC against Clostridium difficile (Example 6); format: cell-based
[4] = test system: Necrotic Enteritis strain of C. perfringens; format: cell-based, Clostridium perfringens
E. coli causing scour = experiment: In vitro MIC against pig disease strains (Example 5); format: cell-based; settings: all 5 strains of E. coli causing scour
[5] = test system: Eimeria species (mainly E. acervulina)
[6] = cited from earlier work
[7] = Feed palatability, feed and water consumption and bird productivity study (Example 2); format: in vivo, broiler chickens; settings: treated birds, in-water days 6-42
From the text: A follow-up study to determine the feed palatability, feed and water consumption and bird productivity following incorporation of a single formulation of IRP001 hemisulfate salt (unmasked) when offered to broiler chickens in-feed or in-water. The study explores the optimal treatment regime in terms of treatment start date.
Phase 1: On receipt, two hundred and seventy (270) day-old commercial broiler chickens were allocated sequentially as they are received into sixteen (16) individual floor pens, each of 16 or 17 birds, on Day 0.
Phase 2: On receipt, the ninety (90) day-old commercial broiler chickens were allocated sequentially as they are received into four (4) individual floor pens, each of 22 or 23 birds, on Day 22.
Feed intake, water intake, weight gain and mortality were used as outcome parameters.
Individual daily feed intake and individual daily water intake data by pen and then by treatment group were calculated for Phases 1 and 2 (and for the entire trial for the birds in Group/Pen 2, 15 and 16 that continue through both Phases) using figures for total feed and water provided each day to each pen divided by the number of birds in each pen. Where errors in weighing, feeding/watering or recording (or other unexplained losses of feed and water) had occurred means were adjusted by using the mean value for the same pen on the 1-2 days either side of the apparent error. Similarly, group mean bodyweights were calculated for Phase 1 using total weight/total no. birds for Day 0 and individual weights from Days 7, 14, 21, 28, 35 and 42. Total (individual) feed consumed was calculated per treatment and feed conversion ratios per treatment calculated using the expression: total (individual) feed/total (individual) weight gain.
Individual daily feed intake and individual daily water intake were statistically compared by treatment within each phase and between Pens 2 and 15/16 over both phases using a linear model:—
and Tibco SPOTFIRE S+ 8.2 (2010). ‘Day’ was included in the model to allow for changes over time, ‘Pen’ as each treatment consisted of 2 pens while an interaction term ‘Treatment:Day’ was included to allow for treatment×time effects. Model suitability was confirmed by inspection of residual plots; in all instances the statistical model was appropriate.

[8] = test system: Clostridium Perfringens (type A strain EHE-NE36) after Eimeria oocyst challenge; settings: NE challenged broilers; for median lesion scores: relative to nil-treatment; for small intestinal lesion scores: relative to nil treatment

In the case of `COc1ccc2cc3[n+](cc2c1OC)CCc1cc2c(cc1-3)OCO2` [IRP001, berberine], the “adverse reactions / unanticipated events” value [1] is listed as “no adverse reaction or unanticipated event”, the carcinogenicity finding [2] is listed as “potential carcinogenicity” and the MIC ([3]; Clostridioides difficile, C. difficile clinical isolate, Berberine sulfate as test agent, variation between replicates, read-out: MIC) is listed as 500 to 1000 µg/mL. For the same compound, the MBC ([3]; Clostridioides difficile, against CD (C. difficile)) was 880 to 1000 µg/mL, the MIC ([3]; Clostridioides difficile, against CD (C. difficile), read-out: MIC) was 640 to 820 µg/mL and the MIC ([4]; C. perfringens NE strain, Berberine sulfate (purity 98.0%) as test agent) was 125 µg/mL. For the same compound, the inhibition of growth ([4]; C. perfringens, at 62.5 µg/ml) was “partial inhibition of growth”.
In the case of `CN[C@H](CC(C)C)C(=O)N[C@H]1C(=O)N[C@@H](CC(N)=O)C(=O)N[C@H]2C(=O)N[C@H]3C(=O)N[C@H](C(=O)N[C@H](C(=O)O)c4cc(O)cc(O)c4-c4cc3ccc4O)[C@H](O)c3ccc(c(Cl)c3)Oc3cc2cc(c3O[C@@H]2O[C@H](CO)[C@@H](O)[C@H](O)[C@H]2O[C@H]2C[C@](C)(N)[C@H](O)[C@H](C)O2)Oc2ccc(cc2Cl)[C@H]1O` [Vancomycin, reference compound], the MIC [3] is reported as “within the expected range” and the MIC [4] is reported as “within the expected range”.
In the case of `COc1cc2c(cc1OC)-c1cc3ccc(OC)c(OC)c3c[n+]1CC2` [palmatine], the MIC (E. coli causing scour) is reported as 125 µg/mL.
For `CC[C@@H](C(=O)[C@@H](C)[C@@H](O)[C@H](C)[C@@H]1O[C@@H]([C@@H](CC)C(=O)O)CC[C@@H]1C)[C@H]1O[C@]2(C=C[C@@H](O)[C@]3(CC[C@@](C)([C@H]4CC[C@](O)(CC)[C@H](C)O4)O3)O2)[C@H](C)C[C@@H]1C` [salinomycin, Salinomycin, reference compound], the “Intestinal health score: Ballooning (total gut)” value ([5]; 21 days) was 0.10, the “Intestinal health score: Contents lower intestine” value ([5]; 21 days) was 0.45 and the “Intestinal health score: Contents upper intestine” value ([5]; 21 days) was 0.65. The “Intestinal health score: Hyperaemia lower intestine” value ([5]; 21 days) was 0.00, the “Intestinal health score: Hyperaemia upper intestine” value ([5]; 21 days) was 0.15 and the “Intestinal health score: Tonus lower intestine” value ([5]; 21 days) was 0.50. For the same compound, the “Intestinal health score: Tonus upper intestine” value ([5]; 21 days) was 0.50, the “Intestinal health score: Total Intestine (maximum 10)” value ([5]; 21 days) was 3.55 and the “Intestinal health score: Translucency lower intestine” value ([5]; 21 days) was 0.85. For the same compound, the “Intestinal health score: Translucency upper intestine” value ([5]; 21 days) was 0.20^B, the “Intestinal health score: Undigested particles in (rectum)” value ([5]; 21 days) was 0.15^B and the “Intestinal health score: Ballooning (total gut)” value ([5]; 28 days) was 0.80. For the same compound, the “Intestinal health score: Contents lower intestine” value ([5]; 28 days) was 0.00, the “Intestinal health score: Contents upper intestine” value ([5]; 28 days) was 1.00 and the “Intestinal health score: Hyperaemia lower intestine” value ([5]; 28 days) was 0.20. The “Intestinal health score: Hyperaemia upper intestine” value ([5]; 28 days) was 0.80, the “Intestinal health score: Tonus lower intestine” value ([5]; 28 days) was 0.60 and the “Intestinal health score: Tonus upper intestine” value ([5]; 28 days) was 0.80. The “Intestinal health score: Total Intestine (maximum 10)” value ([5]; 28 days) was 5.20, the “Intestinal health score: Translucency lower intestine” value ([5]; 28 days) was 0.20 and the “Intestinal health score: Translucency upper intestine” value ([5]; 28 days) was 0.40. The “Intestinal health score: Undigested particles in (rectum)” value ([5]; 28 days) was 0.40, the “FCR 0-14 corrected for mortality” value ([5]; in vivo) was 1.113 and the “FCR 0-21 corrected for mortality” value ([5]; in vivo) was 1.238. For the same compound, the “FCR 0-28 corrected for mortality” value ([5]; in vivo) was 1.470, the “FCR 0-42 corrected for mortality” value ([5]; in vivo) was 1.546^BC and the “Faecal oocyst count, Mean” value ([5]; in vivo) was 72,046 Oocyst/g. For the same compound, the “Feed per bird over days 0-14” value ([5]; in vivo) was 497^AB g/bird, the “Feed per bird over days 0-21” value ([5]; in vivo) was 1193^B g/bird and the “Feed per bird over days 0-28” value ([5]; in vivo) was 2074 g/bird. For the same compound, the “Feed per bird over days 0-42” value ([5]; in vivo) was 4298 g/bird, the “Mean Coccidiosis Lesion Score (maximum 4) Caeca” value ([5]; in vivo) was 0.00 and the “Mean Coccidiosis Lesion Score (maximum 4) Duodenum” value ([5]; in vivo) was 1.35^ABC. The “Mean Coccidiosis Lesion Score (maximum 4) Ileum” value ([5]; in vivo) was 0.00, the “Mean Coccidiosis Lesion Score (maximum 4) Jejunum” value ([5]; in vivo) was 0.40^B and the “Mean Coccidiosis Lesion Score Total” value ([5]; in vivo) was 1.75^B. For the same compound, the “Mean Weight Gain over days 0-7” value ([5]; in vivo) was 116 gm, the “Mean Weight Gain over days 8-14” value ([5]; in vivo) was 330^BC gm and the “Mean Weight Gain over days 15-21” value ([5]; in vivo) was 517^A gm. For the same compound, the “Mean Weight Gain over days 22-28” value ([5]; in vivo) was 645 gm, the “Mean Weight Gain over days 29-42” value ([5]; in vivo) was 1384 gm and the “Mean live weight at 0 days” value ([5]; in vivo) was 41 gm. For the same compound, the “Mean live weight at 7 days” value ([5]; in vivo) was 157 gm, the “Mean live weight at 14 days” value ([5]; in vivo) was 446^B gm and the “Mean live weight at 21 days” value ([5]; in vivo) was 963^AB gm. The “Mean live weight at 28 days” value ([5]; in vivo) was 1608^A gm, the “Mean live weight at 42 days” value ([5]; in vivo) was 2991^A gm and the growth rate ([5]; in vivo) was “statistically similar to the control group”.
For berberine hemisulfate [IRP001 sulfate], the solubility ([6]; ethanol) is given as “slightly soluble”, the solubility ([6]; water) is given as “about 30 parts water” and the “FCR (feed conversion ratio)” value [7] is given as 1.6 kg feed: 1 kg gain. For the same compound, the weight gained [7] was 2.35 kg, the median lesion scores ([8]; 0.1 g/L in-water) was “no reduction in median lesion scores” and the “Mortalities prior to autopsy” value ([8]; 0.1 g/L in-water, vs nil-treatment) was “not significantly different”. The median lesion scores ([8]; 0.2 g/kg in-feed) was “no reduction in median lesion scores”, the “Mortalities prior to autopsy” value ([8]; 0.2 g/kg in-feed, vs nil-treatment) was “not significantly different” and the “small intestinal lesion scores” value ([8]; 1.0 g/L in-water) was “substantial reduction in small intestinal lesion scores”. For the same compound, the “Mortalities prior to autopsy” value ([8]; 1.0 g/L in-water, relative to nil-treatment and low-dose groups) was “significant reduction in mortalities”, the “small intestinal lesion scores” value ([8]; 2.0 g/kg in-feed) was “substantial reduction in small intestinal lesion scores” and the “Mortalities prior to autopsy” value ([8]; 2.0 g/kg in-feed, relative to nil-treatment and low-dose groups) was “significant reduction in mortalities”.
